In US20090186838A1, “Amphotericin Derivatives” (Eidgenössische Technische Hochschule Zürich, priority 2006, published 2009):
Values after ≈ are worked out from the molar mass of the structure shown. Like-named read-outs stand apart in the source and are kept apart here.

System: Saccharomyces cerevisiae wild type BY4741
Test: MIC determination in Saccharomyces cerevisiae wild type BY4741
Type: cell-based
Experimental: In Vitro Antifungal Activity. MIC values for various strains were determined in accordance with the standard protocol from the National Committee of Clinical Laboratory Standards but using YEPD liquid medium instead of RPMI-1640 medium (National Committee of Clinical Laboratory Standards (Reference Method for Broth Dilution Antifungal Susceptibility Testing of Yeast, M27-A2, Approved Standard-Second Edition, Volume 22, Number 15, 1995). AmB was used as a reference. The strains were cultivated overnight in 5 mL YEPD liquid medium at 30 to 37° C. (30° C. for the strain BY4741; 37° C. for the strain DSY1764) with constant shaking. The saturated cultures were diluted to an ODB600 of 0.1 (3×10P^7 cells/mL). Using 24 wells plate, each well was prepared by adding 1% (12 μL) of DMSO solution of the tested polyene macrolide with 1% (12 μL) yeast cells solution and completed with YEPD (1.176 mL). The plates were sealed with Parafilm and then incubated for 18 to 36 hours at 30 to 37° C. (18 hours at 30° C. for the strain BY4741; 36 hours at 37° C. for the strain DSY1764). The optical density was read at 600 nm using 1.5 mL cuvettes. The MIC value was defined as the drug concentration needed to inhibit growth, less than 5% compared to a drug-free culture.
MIC values of various polyene macrolides of the invention in Saccharomyces cerevisiae wild type BY4741, a derivative of S288C, (with AmB as a reference) were determined as described hereinabove.
Based on the remarkable performance observed with the Diamine-AmB conjugate similar modifications of the aminosugar moiety were made on other polyene macrolides, such as for example Nystatin (1b) and Pimaricin (1c). The antifungal activity of these nystatin and pimaricin conjugates bearing two aminopropyl side chains was measured using Saccharomyces cerevisiae wild type BY4741.

[1] = Saccharomyces cerevisiae wild type BY4741
[2] = Table 5, Saccharomyces cerevisiae wild type BY4741, read-out: MIC
[3] = Saccharomyces cerevisiae wild type BY4741, YEPD liquid medium, 18 hours at 30° C., read-out: MIC

Row | MIC [2] [µM] | Structure (SMILES) | MIC (Saccharomyces cerevisiae, 18 h) [µM] | other results
1 |  | C[C@@H]1[C@H](O)[C@@H](C)/C=C/C=C/C=C/C=C/C=C/C=C/C=C/[C@H](O[C@@H]2O[C@H](C)[C@@H](O)[C@H](N(CC(N)CCCCN)CC(N)CCCCN)[C@@H]2O)CC2O[C@](O)(C[C@@H](O)C[C@@H](O)[C@H](O)CC[C@@H](O)C[C@@H](O)CC(=O)O[C@H]1C)C[C@H](O)[C@H]2C(=O)O (stereo partly drawn) [compound 5, N,N-Di-(2,6-diaminohexyl)-AmB] | 0.08 (≈ 0.0922 µg/mL) | 
2 |  | C[C@@H]1[C@H](O)[C@@H](C)/C=C/C=C/CC/C=C/C=C/C=C/C=C/[C@H](O[C@@H]2O[C@H](C)[C@@H](O)[C@H](N(CCCN)CCCN)[C@@H]2O)CC2O[C@](O)(C[C@@H](O)[C@H](O)CC[C@@H](O)C[C@@H](O)C[C@@H](O)CC(=O)O[C@H]1C)C[C@H](O)[C@H]2C(=O)O [compound 17, N,N-Di-(3-aminopropyl)-Nystatin] |  | MIC (Saccharomyces cerevisiae): 0.05 µM (≈ 0.052 µg/mL); antifungal activity compared with the native compounds 1b and 1c [1]: significantly more active
3 |  | C[C@@H]1[C@H](O)[C@@H](C)/C=C/C=C/C=C/C=C/C=C/C=C/C=C/[C@H](O[C@@H]2O[C@H](C)[C@@H](O)[C@H](N(CCNC(=N)N)CCNC(=N)N)[C@@H]2O)CC2O[C@](O)(C[C@@H](O)C[C@@H](O)[C@H](O)CC[C@@H](O)C[C@@H](O)CC(=O)O[C@H]1C)C[C@H](O)[C@H]2C(=O)O [compound 6, N,N-Di-(2-ethylguanidine)-AmB] | 0.1 (≈ 0.109 µg/mL) | 
4 |  | C[C@@H]1[C@H](O)[C@@H](C)/C=C/C=C/C=C/C=C/C=C/C=C/C=C/[C@H](OC2O[C@H](C)[C@@H](O)[C@H](N(CCN)CCN)[C@@H]2O)CC2O[C@](O)(C[C@@H](O)C[C@@H](O)[C@H](O)CC[C@@H](O)C[C@@H](O)CC(=O)O[C@H]1C)C[C@H](O)[C@H]2C(=O)O (stereo partly drawn) [compound 2, N,N-Di-(2-aminoethyl)-AmB] | 0.25 (≈ 0.253 µg/mL) | 
5 | 4 (≈ 2.66 µg/mL) | C[C@@H]1C/C=C/C=C/C=C/C=C/[C@H](O[C@@H]2O[C@H](C)[C@@H](O)[C@H](N)[C@@H]2O)C[C@@H]2O[C@](O)(C[C@@H](O)C[C@H]3O[C@@H]3/C=C/C(=O)O1)C[C@H](O)[C@H]2C(=O)O [1c (Pimaricin), Pimaricin, reference compound] |  | 
6 | 0.3 (≈ 0.234 µg/mL) | C[C@@H]1C/C=C/C=C/C=C/C=C/[C@H](O[C@@H]2O[C@H](C)[C@@H](O)[C@H](N(CCCN)CCCN)[C@@H]2O)C[C@@H]2O[C@](O)(C[C@@H](O)C[C@H]3O[C@@H]3/C=C/C(=O)O1)C[C@H](O)[C@H]2C(=O)O [compound 18, N,N-Di-(3-aminopropyl)-Pimaricin] |  | antifungal activity compared with the native compounds 1b and 1c [1]: significantly more active
7 |  | C[C@@H]1[C@H](O)[C@@H](C)/C=C/C=C/C=C/C=C/C=C/C=C/C=C/[C@H](OC2O[C@H](C)[C@@H](O)[C@H](N(CCCO)CCCO)[C@@H]2O)CC2O[C@](O)(C[C@@H](O)C[C@@H](O)[C@H](O)CC[C@@H](O)C[C@@H](O)CC(=O)O[C@H]1C)C[C@H](O)[C@H]2C(=O)O (stereo partly drawn) [compound 4, N,N-Di-(3-hydroxypropyl)-AmB] | 0.5 (≈ 0.52 µg/mL) | 
8 |  | C[C@@H]1[C@H](O)[C@@H](C)/C=C/C=C/C=C/C=C/C=C/C=C/C=C/[C@H](O[C@@H]2O[C@H](C)[C@@H](O)[C@H](N3CCN(C(=O)CCCCCNC(=O)C(N)CCCCNC(=N)N)CC3)[C@@H]2O)CC2O[C@](O)(C[C@@H](O)C[C@@H](O)[C@H](O)CC[C@@H](O)C[C@@H](O)CC(=O)O[C@H]1C)C[C@H](O)[C@H]2C(=O)O (stereo partly drawn) [compound 8, 2-Amino-6-guanidine-N-[6-oxo-6-(piperazin-1-yl)-hexyl]-hexanamide-AmB] |  | MIC [3]: 0.1 µM (≈ 0.128 µg/mL)
9 |  | C[C@@H]1[C@H](O)[C@@H](C)/C=C/C=C/C=C/C=C/C=C/C=C/C=C/[C@H](O[C@@H]2O[C@H](C)[C@@H](O)[C@H](N3CCN(C(=O)CCCCCNC(=O)C(N)CCCCN)CC3)[C@@H]2O)CC2O[C@](O)(C[C@@H](O)C[C@@H](O)[C@H](O)CC[C@@H](O)C[C@@H](O)CC(=O)O[C@H]1C)C[C@H](O)[C@H]2C(=O)O (stereo partly drawn) [compound 7, 2,6-Diamino-N-[6-oxo-6-(piperazin-1-yl)-hexyl]-hexanamide-AmB] |  | MIC [3]: 0.1 µM (≈ 0.123 µg/mL)

Row | Structure (SMILES) | MIC [2] [µM] | MIC (Saccharomyces cerevisiae, 18 h) [µM] | other results
10 | C[C@@H]1[C@H](O)[C@@H](C)/C=C/C=C/CC/C=C/C=C/C=C/C=C/C(O[C@H]2O[C@H](C)[C@@H](O)[C@H](N)[C@@H]2O)CC2O[C@](O)(CC(O)C(O)CCC(O)CC(O)CC(O)CC(=O)O[C@H]1C)CC(O)C2C(=O)O (stereo partly drawn) [1b (Nystatin), Nystatin, reference compound] | 3.0 (≈ 2.78 µg/mL) |  | 
